ChEMBL document CHEMBL5380869, “Discovery of an Oral, Beyond-Rule-of-Five Mcl-1 Protein-Protein Interaction Modulator with the Potential of Treating Hematological Malignancies” (J Med Chem, 2023)
≈ marks a conversion by molar mass, not a printed value.

Columns and labels:
[1] = Inhibition of terbium-labelled Mcl-1 (unknown origin)/Bim BH3 peptide (H3N-(C/Cy5Mal)-WIAQELRRIGDEFN-OH) (unknown origin) interaction assessed as displacement of Cy5-labeled Bim BH3 peptide by TR-HTRF assay
[2] = Lipophilicity, CHI logP of compound at pH 7.4 by UPLC-TOF analysis; assay type: physicochemical; conditions: buffer, read-out: logP
[3] = Intrinsic clearance in mouse liver microsomes measured upto 60 mins by LC-MS/MS analysis; assay type: ADME, Microsome; conditions: read-out: CLH
[4] = Thermodynamic (equilibrium) solubility of the compound measured after 3 days agitation in pH 2 buffer by LC-MS/MS analysis; assay type: physicochemical; conditions: time 3 day, read-out: Therm_solubility
[5] = Thermodynamic (equilibrium) solubility of the compound measured after 3 days agitation in pH 7 buffer by LC-MS/MS analysis; assay type: physicochemical; conditions: time 3 day, read-out: Therm_solubility
[6] = Intrinsic clearance in human liver microsomes measured upto 60 mins by LC-MS/MS analysis; assay type: ADME, Microsome; conditions: read-out: CLH
MOLP-8 = experiment: Induction apoptosis in human MOLP8 cells assessed as cell killing measured after 2 hrs by Caspase-Glo 3/7 Assay; assay type: functional, cell-based; conditions: MOLP-8, 2 h
[7] = Lipophilicity, CHI logD of compound at pH 2.6 by UPLC-TOF analysis; assay type: physicochemical; conditions: buffer
[8] = Fraction unbound in human plasma at 5 uM incubated for 4.5 hrs by rapid equilibrium dialysis; assay type: ADME, cell-free
Cytochrome P450 2C9 = Cytochrome P450 2C9 (Homo sapiens, UniProt P11712); experiment: Inhibition of human CYP2C9 assessed as fluorescent metabolites by CYP450 inhibition assay; assay type: ADME
Cytochrome P450 1A2 = molecular target: T1, Cytochrome P450 1A2 (Homo sapiens, UniProt P05177); experiment: Inhibition of human CYP1A2 assessed as fluorescent metabolites by CYP450 inhibition assay; assay type: ADME
T1 sequence (P05177 whole entry): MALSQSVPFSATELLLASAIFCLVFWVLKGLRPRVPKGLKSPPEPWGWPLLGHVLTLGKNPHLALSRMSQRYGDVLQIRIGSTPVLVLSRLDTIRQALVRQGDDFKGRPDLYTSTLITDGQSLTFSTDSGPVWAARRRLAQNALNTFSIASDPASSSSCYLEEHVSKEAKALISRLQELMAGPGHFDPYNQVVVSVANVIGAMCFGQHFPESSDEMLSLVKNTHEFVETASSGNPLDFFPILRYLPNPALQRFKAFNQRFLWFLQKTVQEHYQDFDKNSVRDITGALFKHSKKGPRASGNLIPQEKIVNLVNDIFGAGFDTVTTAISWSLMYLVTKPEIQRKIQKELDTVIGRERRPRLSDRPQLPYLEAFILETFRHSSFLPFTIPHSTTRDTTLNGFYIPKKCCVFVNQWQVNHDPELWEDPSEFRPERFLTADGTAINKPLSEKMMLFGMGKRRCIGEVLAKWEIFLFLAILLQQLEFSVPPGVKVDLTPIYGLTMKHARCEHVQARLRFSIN

Cytochrome P450 2D6 = Cytochrome P450 2D6 (Homo sapiens, UniProt P10635); experiment: Inhibition of human CYP2D6 assessed as fluorescent metabolites by CYP450 inhibition assay; assay type: ADME
[9] = Cardiotoxicity risk in human iPSC-CM assessed as calcium transients at 1 uM by CTCM assay; assay type: toxicity, cell-based
[10] = Fraction unbound in mouse plasma at 5 uM incubated for 4.5 hrs by rapid equilibrium dialysis; assay type: ADME, cell-free
Cytochrome P450 2C19 = Cytochrome P450 2C19 (Homo sapiens, UniProt P33261); experiment: Inhibition of human CYP2C19 assessed as fluorescent metabolites by CYP450 inhibition assay; assay type: ADME
[11] = Cardiotoxicity risk in human iPSC-CM assessed as calcium transients at 3 uM by CTCM assay; assay type: toxicity, cell-based
[12] = Cardiotoxicity risk in human iPSC-CM assessed as calcium transients at 10 uM by CTCM assay; assay type: toxicity, cell-based
[13] = Lipophilicity, CHI logD of compound at pH 7.4 by UPLC-TOF analysis; assay type: physicochemical; conditions: buffer
Cytochrome P450 2C8 = molecular target: T2, Cytochrome P450 2C8 (Homo sapiens, UniProt P10632); experiment: Inhibition of human CYP2C8 assessed as fluorescent metabolites by CYP450 inhibition assay; assay type: ADME
T2 sequence (P10632 whole entry): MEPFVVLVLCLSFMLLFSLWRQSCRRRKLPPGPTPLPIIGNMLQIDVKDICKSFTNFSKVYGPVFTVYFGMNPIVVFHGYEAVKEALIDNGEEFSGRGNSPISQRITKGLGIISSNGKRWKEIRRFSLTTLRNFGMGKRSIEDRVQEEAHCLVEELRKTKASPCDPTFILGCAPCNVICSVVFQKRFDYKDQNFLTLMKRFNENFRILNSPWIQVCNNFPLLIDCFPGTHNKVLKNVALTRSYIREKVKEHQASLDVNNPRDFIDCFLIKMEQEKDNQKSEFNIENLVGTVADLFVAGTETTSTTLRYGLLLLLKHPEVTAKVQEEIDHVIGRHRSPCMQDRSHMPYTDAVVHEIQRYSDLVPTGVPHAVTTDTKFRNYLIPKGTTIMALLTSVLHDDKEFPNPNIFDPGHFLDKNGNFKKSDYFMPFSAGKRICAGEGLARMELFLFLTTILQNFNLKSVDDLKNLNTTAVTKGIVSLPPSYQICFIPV

Sequence of Cytochrome P450 2D6 (P10635 whole entry): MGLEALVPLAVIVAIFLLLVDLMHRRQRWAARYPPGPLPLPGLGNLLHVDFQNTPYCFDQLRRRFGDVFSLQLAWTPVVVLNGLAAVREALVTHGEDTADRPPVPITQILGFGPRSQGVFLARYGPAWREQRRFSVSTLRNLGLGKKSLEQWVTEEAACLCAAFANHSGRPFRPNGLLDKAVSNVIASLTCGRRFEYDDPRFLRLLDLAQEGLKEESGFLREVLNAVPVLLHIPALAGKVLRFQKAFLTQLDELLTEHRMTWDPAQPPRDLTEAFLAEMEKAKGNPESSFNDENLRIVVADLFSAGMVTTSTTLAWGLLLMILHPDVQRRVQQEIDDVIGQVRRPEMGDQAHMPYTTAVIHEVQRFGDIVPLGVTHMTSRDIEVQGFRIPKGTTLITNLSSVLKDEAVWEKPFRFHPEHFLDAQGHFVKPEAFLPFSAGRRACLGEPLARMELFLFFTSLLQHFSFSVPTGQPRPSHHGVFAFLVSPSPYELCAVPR
Sequence of Cytochrome P450 2C9 (P11712 whole entry): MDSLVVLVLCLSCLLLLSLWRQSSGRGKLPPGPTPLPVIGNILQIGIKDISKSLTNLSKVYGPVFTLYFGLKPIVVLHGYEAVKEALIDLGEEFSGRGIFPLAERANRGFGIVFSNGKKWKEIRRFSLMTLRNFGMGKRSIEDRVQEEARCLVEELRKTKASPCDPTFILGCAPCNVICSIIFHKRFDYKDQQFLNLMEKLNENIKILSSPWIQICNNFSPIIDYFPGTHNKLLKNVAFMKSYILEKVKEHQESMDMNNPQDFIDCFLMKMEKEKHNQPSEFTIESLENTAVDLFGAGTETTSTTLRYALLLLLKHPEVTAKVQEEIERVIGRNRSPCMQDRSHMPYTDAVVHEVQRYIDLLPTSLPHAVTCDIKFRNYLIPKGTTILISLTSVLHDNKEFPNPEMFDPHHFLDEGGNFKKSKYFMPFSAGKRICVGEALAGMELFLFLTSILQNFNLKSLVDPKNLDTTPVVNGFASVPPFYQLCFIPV
Sequence of Cytochrome P450 2C19 (P33261 whole entry): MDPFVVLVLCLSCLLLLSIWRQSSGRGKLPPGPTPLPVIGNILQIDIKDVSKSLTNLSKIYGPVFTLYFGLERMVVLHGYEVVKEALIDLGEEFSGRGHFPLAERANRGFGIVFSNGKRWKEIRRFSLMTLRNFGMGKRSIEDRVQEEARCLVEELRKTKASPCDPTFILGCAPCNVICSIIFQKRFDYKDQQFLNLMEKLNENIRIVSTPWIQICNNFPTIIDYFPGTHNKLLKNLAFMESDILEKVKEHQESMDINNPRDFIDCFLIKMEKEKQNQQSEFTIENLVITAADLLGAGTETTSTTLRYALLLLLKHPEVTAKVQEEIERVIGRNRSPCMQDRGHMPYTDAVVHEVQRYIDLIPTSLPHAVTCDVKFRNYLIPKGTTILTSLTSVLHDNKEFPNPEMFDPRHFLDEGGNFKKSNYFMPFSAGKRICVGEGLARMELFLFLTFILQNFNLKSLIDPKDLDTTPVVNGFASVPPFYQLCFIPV

Structure (SMILES)	Ki [1]	chromatographic logD [2]	microsomal CLint [3]	solubility thermodynamic at 72 h [4]	solubility thermodynamic at 72 h [5]	microsomal CLint [6]	chromatographic logD [7]	Fu [8]	inhibition (INH) (Cytochrome P450 2C9)	inhibition (INH) (Cytochrome P450 1A2)	inhibition (INH) (Cytochrome P450 2D6)	Fu [10]	inhibition (INH) (Cytochrome P450 2C19)	chromatographic logD [13]	IC50 (Cytochrome P450 2C8)	AC50 (MOLP-8)	Activity [9]	Activity [11]	Activity [12]
C[C@@H]1[C@@H](C)C/C=C(\F)[C@@](O)(CN2CCN3CCCC[C@@H]3C2)[C@@H]2OCC[C@H]2CN2C[C@@]3(CCCc4cc(Cl)ccc43)COc3ccc(cc32)C(=O)NS1(=O)=O	0.22 nM	2.9	< 7.7 µL/min/mg	95 µM (≈ 74.6 µg/mL)	< 0.1 µM	< 7.7 µL/min/mg	2.5	–	–	–	–	–	–	–	–	2660 nM	–	–	–
COCCN(CCOC)C[C@]1(OC)/C(F)=C/C[C@H](C)[C@@H](C)S(=O)(=O)NC(=O)c2ccc3c(c2)N(C[C@@H]2CCO[C@H]21)C[C@@]1(CCCc2cc(Cl)ccc21)CO3	0.096 nM	3.9	28 µL/min/mg	518 µM (≈ 410 µg/mL)	1.1 µM (≈ 0.872 µg/mL)	< 7.7 µL/min/mg	3	–	–	–	–	–	–	–	–	412 nM	–	–	–
COCCOCCn1nc(C)c2c1CSCc1cc(n(C)n1)CSc1cc(c3ccccc3c1)OCCCn1c(C(=O)O)c(C)c3c-2c(Cl)ccc31	0.015 nM	–	> 347 µL/min/mg	< 0.5 µM	508 µM (≈ 386 µg/mL)	81 µL/min/mg	–	0.08%	Not Active	Not Active	Not Active	0.03%	Not Active	2.4	501 nM	12 nM	Non-Toxic	Non-Toxic	–
COc1nn(C)cc1C(=O)N[S@@]1(=O)=NC(=O)c2ccc3c(c2)N(C[C@@H]2CCO[C@H]2[C@](CN2CCN4CCOC[C@@H]4C2)(OC)/C(F)=C/C[C@H](C)C1)C[C@@]1(CCCc2cc(Cl)ccc21)CO3	0.014 nM	–	< 7.7 µL/min/mg	48 µM (≈ 44.4 µg/mL)	< 0.1 µM	< 7.7 µL/min/mg	–	0.12%	Not Active	Not Active	Not Active	0.08%	Not Active	3.1	6310 nM	28.6 nM	Non-Toxic	Non-Toxic	Non-Toxic
CO[C@@]1(CN2CCN3CCCC[C@@H]3C2)/C(F)=C/C[C@H](C)[C@@H](C)S(=O)(=O)NC(=O)c2ccc3c(c2)N(C[C@@H]2CCO[C@H]21)C[C@@]1(CCCc2cc(Cl)ccc21)CO3	0.15 nM	3	< 7.7 µL/min/mg	40 µM (≈ 32 µg/mL)	102 µM (≈ 81.5 µg/mL)	< 7.7 µL/min/mg	2.5	–	–	–	–	–	–	–	–	1860 nM	–	–	–

Second part, led by results:

Ki [1]	chromatographic logD [2]	microsomal CLint [3]	solubility thermodynamic at 72 h [4]	solubility thermodynamic at 72 h [5]	microsomal CLint [6]	chromatographic logD [7]	Fu [8]	inhibition (INH) (Cytochrome P450 2C9)	inhibition (INH) (Cytochrome P450 1A2)	inhibition (INH) (Cytochrome P450 2D6)	Fu [10]	inhibition (INH) (Cytochrome P450 2C19)	chromatographic logD [13]	IC50 (Cytochrome P450 2C8)	Structure (SMILES)	AC50 (MOLP-8)	Activity [9]	Activity [11]	Activity [12]
0.014 nM	2.9	< 7.7 µL/min/mg	69 µM (≈ 55.3 µg/mL)	110 µM (≈ 88.2 µg/mL)	19 µL/min/mg	2.5	0.16%	Not Active	Not Active	Not Active	0.13%	Not Active	–	–	CO[C@@]1(CN2CCN3CCOC[C@@H]3C2)/C(F)=C/C[C@H](C)[C@@H](C)S(=O)(=O)NC(=O)c2ccc3c(c2)N(C[C@@H]2CCO[C@H]21)C[C@@]1(CCCc2cc(Cl)ccc21)CO3	138 nM	Non-Toxic	Non-Toxic	–
0.088 nM	3.5	21 µL/min/mg	44 µM (≈ 35.3 µg/mL)	< 0.1 µM	11 µL/min/mg	2.8	–	–	–	–	–	–	–	–	CO[C@]1(CN2CCN3CCOC[C@@H]3C2)/C(F)=C/C[C@H](C)[C@@H](C)S(=O)(=O)NC(=O)c2ccc3c(c2)N(C[C@@H]2CCO[C@H]21)C[C@@]1(CCCc2cc(Cl)ccc21)CO3	163 nM	Non-Toxic	Non-Toxic	Toxic
0.23 nM	–	14 µL/min/mg	521 µM (≈ 379 µg/mL)	0.4 µM (≈ 0.291 µg/mL)	34 µL/min/mg	2.3	–	–	–	–	–	–	2.7	–	C[C@@H]1[C@@H](C)C/C=C/[C@H](OCCN2CCOCC2)[C@@H]2OCC[C@H]2CN2C[C@@]3(CCCc4cc(Cl)ccc43)COc3ccc(cc32)C(=O)NS1(=O)=O	616 nM	Non-Toxic	Non-Toxic	Non-Toxic
0.13 nM	3.3	22 µL/min/mg	516 µM (≈ 414 µg/mL)	< 0.1 µM	< 7.7 µL/min/mg	3.4	–	–	–	–	–	–	–	–	CO[C@@]1(CN2CCN3CCOC[C@@H]3C2)/C(F)=C/C[C@H](C)[C@H](C)S(=O)(=O)NC(=O)c2ccc3c(c2)N(C[C@@H]2CCO[C@H]21)C[C@@]1(CCCc2cc(Cl)ccc21)CO3	992 nM	Non-Toxic	Non-Toxic	Toxic
0.19 nM	–	34 µL/min/mg	539 µM (≈ 402 µg/mL)	1.2 µM (≈ 0.896 µg/mL)	62 µL/min/mg	2.5	–	–	–	–	–	–	2.7	–	C[C@@H]1[C@@H](C)C/C=C(\F)[C@H](OCCN2CCOCC2)[C@@H]2OCC[C@H]2CN2C[C@@]3(CCCc4cc(Cl)ccc43)COc3ccc(cc32)C(=O)NS1(=O)=O	314 nM	Non-Toxic	Non-Toxic	Non-Toxic
